# Experimental data from patent publication US6225478A, “Iridoid derivatives and neovascularization inhibitors containing the same as active ingredient” (Tsumura & Co., priority 1999, dated 2001).
# Experiments:
# Assay type in all cases: cell-based
# [1] = tested on: human umbilical-vein endothelial cells (HUVEC); experiment: Cell Migration Assay (CMA) Test, HUVEC (% relative to control); details: 24 hours, 60% or less = remarkable inhibition; for activity at 1 µg/mL / activity at 10 µg/mL: Homo sapiens, HUVEC, read-out: CMA (% relative to control)
# In short: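 Confluent 7th-subculture HUVEC monolayers scraped with razor blade, then given M199 (2+) plus 40 or 4 μl of 1 mg/ml sample (in 5% DMSO-PBS) per 4.0 ml medium for 24 h at 37 °C. Methanol-fixed, Giemsa-stained; newly migrated cells counted microscopically in 1 mm×1 mm blocks, expressed versus M199 (2+) control.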
# [2] = tested on: human umbilical-vein endothelial cells (HUVEC); experiment: Cell Proliferation Assay (CPA) Test, HUVEC, MTT; details: M199 (2+) medium; for IC50: Homo sapiens, read-out: CPA (IC50 μg/ml)
# In short: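 HUVEC (7th subculture) seeded at 5×10^4 cells/ml in M-199 with 20% FCS, 10 ng/ml b-FGF and 10 ng/ml EGF, grown 24 h at 37 °C, 5% CO2. Compounds added from 1 mg/ml or 0.1 mg/ml samples in 5% DMSO-PBS(−), renewed with medium after 24 h, then cultured 48 h more. Read-out by MTT with 4 h incubation and SDS/HCl stop.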
# [3] = tested on: human umbilical-vein endothelial cells (HUVEC); experiment: Tube Formation Assay (TFA) Test, HUVEC in collagen gel; details: 20 hours, 40% or less judged remarkable; for inhibition at 1 µg/mL / inhibition at 10 µg/mL: Homo sapiens, HUVEC, 20 h, read-out: TFA (inhibition rate, %)
# In short: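 HUVEC (7th subculture, 1×10^5 cells/ml) attached to collagen gel for 2 h at 37 °C, given sample and overlaid with collagen, then cultured 20 h at 37 °C, 5% CO2 in M-199 with 20% FCS, 30 ng/ml b-FGF and 0.1 μM PMA. Tube length measured by image analysis; % inhibition relative to positive and negative controls.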
Compound,activity at 1 µg/mL ([1]; 1 μg/ml),activity at 10 µg/mL ([1]; 10 μg/ml),IC50 [2],inhibition at 1 µg/mL ([3]; 1 μg/ml),inhibition at 10 µg/mL ([3]; 10 μg/ml),CMA (% relative to control) ([1]; 1 μg/ml),CMA (% relative to control) ([1]; 10 μg/ml),CPA (IC50 μg/ml) [2],"TFA (inhibition rate, %) ([3]; 1 μg/ml)","TFA (inhibition rate, %) ([3]; 10 μg/ml)"
"CNC(=O)O[C@@H]1OC=C(C(=O)OC)[C@H]2C[C@@H]3O[C@]3(COC(C)=O)[C@@H]12 [compound 46, (1S,4aS,6S. 7R,7aR)-7-(acetoxymethyl)-6,7-epoxy-1-(methylcarbamoyloxy)-1,4a,5,6,7,7a-hexahydro [c] pyrane-4-carboxylic acid methylester]",105%,103%,> 100 µg/mL,-0.8%,1.5%,,,,,
"CCCCCCOC(=O)C1=CO[C@@H](OC(=O)NC)[C@@H]2[C@@H]1C[C@@H]1O[C@]21C [compound 5, (1S,4aS,6S,7R,7aR)-6,7-epoxy-1,4a,5,6,7,7a-hexahydro-7-methyl-1-(methylcarbamoyloxy) cyclopenta [c]-pyrane-4-carboxylic acid n-hexylester]",98.6%,82%,44.9 µg/mL,20.8%,34.5%,,,,,
"CNC(=O)OC1OC=C(C(=O)N2CCCC2)C2CC3OC3(C)C12 [compound 25, (1S,4aS,6S,7R,7aR)-6,7-epoxy-1,4a,5,6,7,7a-hexahydro-7-methyl-1-(methylcarbamoyloxy) cyclopenta [c]-pyrane-4-carboxylic acid pyrrolidylamide]",91.8%,87.5%,> 100 µg/mL,31.8%,14.5%,,,,,
"C=CCCCOC(=O)C1=CO[C@@H](OC(=O)NC)[C@@H]2[C@@H]1C[C@@H]1O[C@]21C [compound 7, (1S,4aS,6S,7R,7aR)-6,7-epoxy-1,4a,5,6,7,7a-hexahydro-7-methyl-1-(methylcarbamoyloxy) cyclopenta [c]-pyrane-4-carboxylic acid 4-pentenylester]",82.6%,79.7%,90.6 µg/mL,25.8%,18.2%,,,,,
"COC(=O)C1=CO[C@@H](OC(=O)Nc2ccccc2)[C@@H]2[C@@H]1C[C@@H]1O[C@]21C [compound 35, (1S,4aS,6S,7R,7aR)-6,7-epoxy-1,4a,5,6,7,7a-hexahydro-7-methyl-1-(phenylcarbamoyloxy) cyclopenta [c] pyrane-4-carboxylic acid methylester]",84.4%,67.2%,> 100 µg/mL,-3.3%,20%,,,,,
"CCN(CC)C(=O)C1=CO[C@@H](OC(=O)NC)[C@@H]2[C@@H]1C[C@@H]1O[C@]21C [compound 19, (1S,4aS,6S,7R,7aR)-6,7-epoxy-1,4a,5,6,7,7a-hexahydro-7-methyl-1-(methylcarbamoyloxy) cyclopenta [c]-pyrane-4-carboxylic acid diethylamide]",96.4%,93.5%,> 100 µg/mL,23.6%,21.3%,,,,,
"CNC(=O)OC[C@@H]1[C@@H](C)CC[C@@H]1C1(COC(=O)NC)CO1 (stereo partly drawn) [Compound 59, 2-[(1S,2R,3S)-2-(methylcarbamoyloxy)methyl-3-methylcyclopento-1-yl]-2,3-epoxy-propane-1-methylcarbamate]",,,,,,99.3%,92.5%,> 100.0 µg/mL,5.9%,-4.5%
"CNC(=O)OC=C(C(=O)OC)[C@@H]1CC[C@]2(C)O[C@@]12CO [compound 54, 2-[(1S,2R,3S)-2,3-epoxy-2-(hydroxymethyl)-3-methyl-2-cyclopentyl]-3-[(methylcarbamoyl)oxy] methylacrylate]",,,,,,90.5%,86.2%,> 100.0 µg/mL,-8.6%,-12.2%
"CNC(=O)O[C@@H]1OC=C(C(=O)OC)[C@H]2C[C@H]3O[C@@]3(C)C12 (stereo in doubt) [Compound 57, (1S,4aS,6R,7S,7aR)-6,7-epoxy-7-methyl-1-(methylcarbamoyloxy)-1,4a,5,6,7,7a-hexahydrocyclopenta [c] pyrane-4-carboxylic acid methylester]",96%,93%,> 100 µg/mL,17.7%,13.5%,,,,,
"C=CCCOC(=O)C1=CO[C@@H](OC(=O)NC)[C@@H]2[C@@H]1C[C@@H]1O[C@]21C [compound 8, (1S,4aS,6S,7R,7aR)-6,7-epoxy-1,4a,5,6,7,7a-hexahydro-7-methyl-1-(methylcarbamoyloxy) cyclopenta [c]-pyrane-4-carboxylic acid 3-butenylester]",75.4%,60.5%,60.5 µg/mL,27.3%,93.2%,,,,,
"CNC(=O)O[C@@H]1OC=C(C(=O)OC)[C@H]2C[C@@H]3OC3(COC)C12 (stereo in doubt) [compound 49, (1S,4aS,6S,7R,7aR)-6,7-epoxy-7-(methoxymethyl)-1-(methylcarbamoyloxy)-1,4a,5,6,7,7a-hexahydrocyclopenta [c] pyrane-4-carboxylic acid methylester]",102%,104%,> 100 µg/mL,21.2%,12.8%,,,,,
"COC(=O)C1=CO[C@@H](OC(=O)NC(=O)CCl)[C@@H]2[C@@H]1C[C@@H]1O[C@]21C [compound 39, (1S,4aS,6S,7R,7aR)-1-(chloroacetylcarbamoyloxy)-6,7-epoxy-1,4a,5,6,7,7a-hexahydro-7-methylcyclopenta [c] pyrane-4-carboxylic acid methylester]",110%,94.6%,55 µg/mL,37.6%,39.7%,,,,,
"CCNC(=O)C1=CO[C@@H](OC(=O)NC)[C@@H]2[C@@H]1C[C@@H]1O[C@]21C [compound 16, (1S,4aS,6S,7R,7aR)-6,7-epoxy-1,4a,5,6,7,7a-hexahydro-7-methyl-1-(methylcarbamoyloxy) cyclopenta [c]-pyrane-4-carboxylic acid ethylamide]",98.1%,102%,> 100 µg/mL,30.7%,21.6%,,,,,
Protamine [reference compound],,,,,,69.2%,50.0%,52.7 µg/mL,41.0%,25.4%
"C=CCOC(=O)C1=CO[C@@H](OC(=O)NC)[C@@H]2[C@@H]1C[C@@H]1O[C@]21C [compound 9, (1S,4aS,6S,7R,7aR)-6,7-epoxy-1,4a,5,6,7,7a-hexahydro-7-methyl-1-(methylcarbamoyloxy) cyclopenta [c]-pyrane-4-carboxylic acid allylester]",111%,116%,> 100 µg/mL,11%,16.5%,,,,,
"CNC(=O)O[C@@H]1OC=C(C(=O)OC)[C@H]2C[C@@H]3O[C@]3(C)[C@H]12 [compound 3, (1S,4aS,6S,7R,7aR)-6,7-epoxy-1,4a,5,6,7,7a-hexahydro-1-methylcarbamoyloxy-7-methylcyclopenta [c] pyrane-4-carboxylic acid methylester]",68.5%,57.3%,> 100 µg/mL,33%,33.5%,,,,,
"CNC(=O)O[C@@H]1OC=C(C(=O)OCc2ccccc2)[C@H]2C[C@@H]3O[C@]3(C)[C@H]12 [compound 11, (1S,4aS,6S,7R,7aR)-6,7-epoxy-7-methyl-1-(methylcarbamoyloxy)-1,4a,5,6,7,7a-hexahydrocyclopenta [c]-pyrane-4-carboxylic acid benzyl ester]",102%,85.5%,> 100 µg/mL,20.7%,40.3%,,,,,
"COC(=O)C1=CO[C@@H](OC(=O)NC(C)C)[C@@H]2[C@@H]1C[C@@H]1O[C@]21C [compound 34, (1S,4aS,6S,7R,7aR)-6,7-epoxy-1,4a,5,6,7,7a-hexahydro-1-(isopropylcarbamoyloxy)-7-methylcyclopenta [c] pyrane-4-carboxylic acid methylester]",98.2%,95.2%,> 100 µg/mL,16.8%,-14.1%,,,,,
"CCNC(=O)O[C@@H]1OC=C(C(=O)OC)[C@H]2C[C@@H]3O[C@]3(C)[C@H]12 [compound 30, (1S,4aS,6S,7R,7aR)-6,7-epoxy-1-(ethylcarbamoyloxy)-1,4a,5,6,7,7a-hexahydro-7-methylcyclopenta [c] pyrane-4-carboxylic acid methylester]",90%,105%,> 100 µg/mL,16.5%,36%,,,,,
